As a reminder, the pIC50 is the IC50 on a negative log10 scale, so that one unit is a factor of ten. One may read the inhibition as the relative decrease from the control value, in per cent. The term half-life denotes how long it takes for the measured level to halve. In general, AUC(0-t) refers to the area under the concentration-time curve up to a stated or last time point. Usually Cmax stands for the highest concentration seen after dosing.

Experimental findings from ChEMBL document CHEMBL3813600, “Identification of a novel boronic acid as a potent, selective, and orally active hormone sensitive lipase inhibitor” (Bioorg Med Chem, 2016) are described below.

pIC50: −log10 of the molar value. The source made the active and inactive calls. No cut-off for these calls is given here.

The target of one data set is T1, Hormone-sensitive lipase (Homo sapiens, UniProt Q05469).
T1 sequence (Q05469 whole entry): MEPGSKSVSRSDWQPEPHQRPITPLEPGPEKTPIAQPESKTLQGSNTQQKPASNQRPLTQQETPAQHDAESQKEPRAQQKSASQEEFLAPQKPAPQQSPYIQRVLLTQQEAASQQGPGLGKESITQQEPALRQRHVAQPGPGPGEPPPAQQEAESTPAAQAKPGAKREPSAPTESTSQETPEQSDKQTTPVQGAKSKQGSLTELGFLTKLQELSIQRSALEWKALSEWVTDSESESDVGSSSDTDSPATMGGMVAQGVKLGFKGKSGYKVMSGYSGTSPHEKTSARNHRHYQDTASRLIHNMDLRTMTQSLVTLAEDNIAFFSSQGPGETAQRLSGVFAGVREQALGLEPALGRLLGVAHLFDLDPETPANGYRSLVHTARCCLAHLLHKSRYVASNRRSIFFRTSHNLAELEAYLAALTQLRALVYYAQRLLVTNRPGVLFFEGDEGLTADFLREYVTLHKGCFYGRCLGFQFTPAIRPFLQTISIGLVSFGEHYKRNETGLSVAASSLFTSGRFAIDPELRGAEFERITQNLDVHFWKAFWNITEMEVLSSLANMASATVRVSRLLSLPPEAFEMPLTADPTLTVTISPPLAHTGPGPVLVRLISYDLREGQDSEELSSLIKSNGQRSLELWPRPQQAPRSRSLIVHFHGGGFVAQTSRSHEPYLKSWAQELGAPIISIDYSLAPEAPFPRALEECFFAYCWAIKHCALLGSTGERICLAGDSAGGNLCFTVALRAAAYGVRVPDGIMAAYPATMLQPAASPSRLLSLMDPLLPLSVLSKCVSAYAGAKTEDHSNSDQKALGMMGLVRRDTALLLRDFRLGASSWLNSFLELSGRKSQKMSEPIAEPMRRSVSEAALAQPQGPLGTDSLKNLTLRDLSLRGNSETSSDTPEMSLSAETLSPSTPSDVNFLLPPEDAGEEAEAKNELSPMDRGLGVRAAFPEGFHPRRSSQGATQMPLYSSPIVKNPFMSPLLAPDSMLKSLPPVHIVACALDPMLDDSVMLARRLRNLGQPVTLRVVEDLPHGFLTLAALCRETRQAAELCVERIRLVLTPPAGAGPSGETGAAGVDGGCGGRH
Put plainly: Inhibition of recombinant human HSL expressed in Sf9 insect cells using PNPB as substrate measured after 5 mins by spectrophotometric method.

Data set [1] concerns the target T2, Hormone-sensitive lipase (Homo sapiens) (UniProt Q05469).
T2 sequence (whole entry): T1 sequence (Q05469 whole entry)
In words: Mixed-type inhibition of recombinant human HSL expressed in Sf9 insect cells using PNPB as substrate measured after 5 mins by Lineweaver-Burk plot analysis.

The test system of data set [2] is Rattus norvegicus. Put plainly: Antilipolytic activity in orally dosed fasted Wistar rat assessed as reduction of plasma glycerol AUC ( 0 to 7 hrs). Type of data set: functional, organism-based.
A short description of data set [3]: Half life in rat plasma at 3 mg/kg, po by LC-MS/MS analysis. The class given is ADME, organism-based.
The nature of data set [4]: AUC (0 to 7 hrs) in rat at 3 mg/kg, po by LC-MS/MS analysis. Type of data set: ADME, organism-based. On the set-up: time < 7 hr, dose 3 mg/kg, route oral. The settings on record: in vivo.
Data set [5] has as its target T2, Hormone-sensitive lipase (Homo sapiens). In words: Inhibition of recombinant human HSL expressed in Sf9 insect cells at 1 uM using PNPB as substrate measured after 5 mins by spectrophotometric method.
Data set [6] concerns the target Acetylcholinesterase (Homo sapiens) (UniProt P22303). Put plainly: Inhibition of AChE (unknown origin) at >50 uM preincubated for 10 mins followed by addition of acetylthiocholine iodide as substrate measured after 15 mins by spectrophotometric method.
The target in data set [7] is Cholinesterase (Homo sapiens) (UniProt P06276). Put plainly: Inhibition of BChE (unknown origin) at >50 uM preincubated for 10 mins followed by addition of S-butyrylthiocholine iodide as substrate measured after 15 mins by spectrophotometric method.
Sequence of Cholinesterase (Homo sapiens) (P06276 whole entry): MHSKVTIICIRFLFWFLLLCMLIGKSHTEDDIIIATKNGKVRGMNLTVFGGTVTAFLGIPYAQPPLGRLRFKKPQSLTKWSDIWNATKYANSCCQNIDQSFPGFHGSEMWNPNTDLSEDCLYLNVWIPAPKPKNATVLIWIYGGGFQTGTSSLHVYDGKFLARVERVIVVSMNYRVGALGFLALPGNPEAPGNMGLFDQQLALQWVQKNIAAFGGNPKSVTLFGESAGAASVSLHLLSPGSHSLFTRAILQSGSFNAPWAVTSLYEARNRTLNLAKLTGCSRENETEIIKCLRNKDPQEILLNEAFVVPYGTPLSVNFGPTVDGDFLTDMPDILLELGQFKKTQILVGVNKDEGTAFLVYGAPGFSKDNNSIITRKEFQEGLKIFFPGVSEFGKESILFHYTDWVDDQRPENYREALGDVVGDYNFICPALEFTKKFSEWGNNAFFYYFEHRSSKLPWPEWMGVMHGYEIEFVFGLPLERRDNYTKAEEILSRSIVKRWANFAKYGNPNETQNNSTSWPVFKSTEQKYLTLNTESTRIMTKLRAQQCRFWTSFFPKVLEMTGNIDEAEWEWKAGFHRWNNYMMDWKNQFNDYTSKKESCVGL
Data set [8] relates to Rattus norvegicus. Put plainly: Antilipolytic activity in fasted Wistar rat assessed as reduction of plasma glycerol AUC ( 0 to 7 hrs) at 3 mg/kg, po. The class given is functional. On the set-up: scale not given: the % may be the effect or the level left.
Data set [9] in a line: Cmax in rat at 3 mg/kg, po by LC-MS/MS analysis. Type of data set: ADME, organism-based. On the set-up: dose 3 mg/kg, route oral. Conditions: in vivo.
The target of data set [10] is T2, Hormone-sensitive lipase (Homo sapiens). Put plainly: Inhibition of recombinant human HSL expressed in Sf9 insect cells at 10 uM using PNPB as substrate measured after 5 mins by spectrophotometric method.
Data set [11] deals with Rattus norvegicus. Put plainly: Antilipolytic activity in fasted Wistar rat assessed as reduction of plasma glycerol AUC ( 0 to 7 hrs) at 10 mg/kg, po. Type of data set: functional, organism-based.

Sequence of Acetylcholinesterase (Homo sapiens) (P22303 whole entry): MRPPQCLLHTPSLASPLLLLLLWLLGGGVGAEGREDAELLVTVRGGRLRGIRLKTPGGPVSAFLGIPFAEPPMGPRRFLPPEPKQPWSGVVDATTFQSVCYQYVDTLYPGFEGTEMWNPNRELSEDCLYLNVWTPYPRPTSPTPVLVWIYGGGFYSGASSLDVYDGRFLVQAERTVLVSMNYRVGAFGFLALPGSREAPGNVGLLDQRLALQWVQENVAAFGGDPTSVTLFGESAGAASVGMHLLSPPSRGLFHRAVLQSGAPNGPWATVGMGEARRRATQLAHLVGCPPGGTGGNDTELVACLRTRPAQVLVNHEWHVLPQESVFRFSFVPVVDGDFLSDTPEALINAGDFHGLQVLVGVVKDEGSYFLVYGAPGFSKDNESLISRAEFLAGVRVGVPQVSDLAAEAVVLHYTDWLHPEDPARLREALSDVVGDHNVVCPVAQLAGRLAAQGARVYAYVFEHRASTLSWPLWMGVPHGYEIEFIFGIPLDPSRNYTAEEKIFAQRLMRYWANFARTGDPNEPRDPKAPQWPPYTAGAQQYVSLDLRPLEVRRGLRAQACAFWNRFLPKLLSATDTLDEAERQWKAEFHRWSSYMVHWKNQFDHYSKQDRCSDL

As to `OB(O)c1ccccc1OCc1ccccc1`, the pIC50 at Hormone-sensitive lipase was 6.89.
Take `OB(O)c1ccccc1OCc1ccc(Oc2ccc(C(F)(F)F)cn2)cc1`: in data set [1], the inhibition result was “Active”. Moreover, the Activity entry with Rattus norvegicus [2] was “Dose-dependent effect”; in the data set with Rattus norvegicus [8], 11%. Besides, the half-life in data set [3] was 2.95 h. The AUC(0-t) at 7 h in data set [4] is 1750 ng·h/mL. The inhibition in [5] stood at 89%. Further, the pIC50 on Hormone-sensitive lipase is 8.15. For the same compound, the inhibition result in data set [6] and in data set [7] was “inactive” each time. This compound also had a Cmax in data set [9] of 420 ng/mL.
On to `O=P(O)(O)c1ccccc1OCc1ccc(Oc2ccc(C(F)(F)F)cn2)cc1`, for which the inhibition in data set [5] was -5%.
In the case of `O=C(Nc1ccc(Oc2ccc(C(F)(F)F)cn2)cc1)N1CCC(O)CC1`, the inhibition in [10] was found to be 0%.
Take `CC1(C)OB(c2cccc(OCc3ccc(Oc4ccc(C(F)(F)F)cn4)cc3)c2)OC1(C)C`: the inhibition in data set [5] stood at 59%.
Regarding `O=C(Cc1ccc(Oc2ccc(C(F)(F)F)cn2)cc1)N1CCC(O)CC1`, in data set [10], the inhibition worked out at 2%.
`O=C(c1ccccc1OCc1ccc(Oc2ccc(C(F)(F)F)cn2)cc1)C(F)(F)F`: the inhibition in data set [5] was 1%.
Regarding `CC1(C)OB(c2ccc(OCc3ccc(Oc4ccc(C(F)(F)F)cn4)cc3)cc2)OC1(C)C`, the inhibition in [5] was -10%.
Turning to `O=C(O)c1ccccc1OCc1ccc(Oc2ccc(C(F)(F)F)cn2)cc1`, in data set [5], the inhibition is -8%.
For the compound `N#Cc1ccccc1OCc1ccc(Oc2ccc(C(F)(F)F)cn2)cc1`, the inhibition in data set [5] stood at 0%.
In the case of `CC1(C)OB(c2ccccc2OCc2ccc(Oc3ccc(C(F)(F)F)cn3)cc2)OC1(C)C`, in data set [5], the inhibition was 81%.
As to `O=C(Oc1ccc(Oc2ccc(C(F)(F)F)cn2)cc1)N1CCC(O)CC1`, the outcome in the data set on Rattus norvegicus [11] was Active. Further, the negative logarithm of the IC50 (pIC50) on Hormone-sensitive lipase is 6.57.
